# Results published in patent US8377967B2, “Piperidine derivative” (Nippon Zoki Pharmaceutical Co., Ltd., priority 2008, dated 2013).
# Structures can show the parent of a compound that is named as a salt.
# Molecular target: human histamine H1 receptor (Homo sapiens, UniProt P35367)
# Assay: In vitro human histamine H1 receptor binding experiment ([3H]pyrilamine)
# Conditions: HEK293A cells stably expressing human histamine H1 receptor, [3H]pyrilamine 3 nmol/L, room temperature 60 minutes
# Description: Recombinant human histamine H1 receptor plasmid (prepared by Invitrogen) was transfected to HEK293A cells with Lipofectamine 2000 (manufactured by Invitrogen). Cells stably expressing human histamine H1 receptor were screened with Geneticin (manufactured by Invitrogen). The cells were continued to be cultured using a Dulbecco's Modified Eagle Medium containing 10% fetal bovine serum, 0.1 mmol/L MEM Non-Essential Amino Acids Solution, 2 mmol/L L-glutamine and 0.7 mg/mL Geneticin in a 5% CO2 incubator at 37° C. The cells stably expressing human histamine H1 receptor were prepared using 50 mmol/L Tris-HCl (pH 7.5) (hereinafter referred to as buffer) containing 0.1% bovine serum albumin, so as to have a concentration of 3×10^6 cells/mL, to give a cell sample preparation. Fifty microliters of the buffer, 50 μl of a test substance solution at various concentrations, and 50 μL of [^3H]pyrilamine solution (final concentration: 3 nmol/L) were added to each of the wells on the 96-well plate, and stirred, and 100 μL of the cell sample preparation was then added thereto (at a concentration of 3×10^5 cells/well) to initiate the reaction.
# The cells were incubated at room temperature for 60 minutes, and then filtered on UniFilter GF/C plate (manufactured by Packard) immersed in 0.5% polyethyleneimine using a cell harvester (IH-110, manufactured by INNOTECH CORPORATION), to stop the reaction, and the plate was washed with the buffer. The plate after washing was sufficiently dried, and 20 μL of a scintillator (MaxiLight, manufactured by Hidex) was added thereto, and count per minute (cpm) was measured with a multi-labeled microplate reader (Plate Chameleo II, manufactured by Hidex). The nonspecific binding was cpm in a case where 30 μmol/L pyrilamine was added. The experiments were carried out at n=3, and at least repeated 3 times.
# Sequence of human histamine H1 receptor (P35367 whole entry): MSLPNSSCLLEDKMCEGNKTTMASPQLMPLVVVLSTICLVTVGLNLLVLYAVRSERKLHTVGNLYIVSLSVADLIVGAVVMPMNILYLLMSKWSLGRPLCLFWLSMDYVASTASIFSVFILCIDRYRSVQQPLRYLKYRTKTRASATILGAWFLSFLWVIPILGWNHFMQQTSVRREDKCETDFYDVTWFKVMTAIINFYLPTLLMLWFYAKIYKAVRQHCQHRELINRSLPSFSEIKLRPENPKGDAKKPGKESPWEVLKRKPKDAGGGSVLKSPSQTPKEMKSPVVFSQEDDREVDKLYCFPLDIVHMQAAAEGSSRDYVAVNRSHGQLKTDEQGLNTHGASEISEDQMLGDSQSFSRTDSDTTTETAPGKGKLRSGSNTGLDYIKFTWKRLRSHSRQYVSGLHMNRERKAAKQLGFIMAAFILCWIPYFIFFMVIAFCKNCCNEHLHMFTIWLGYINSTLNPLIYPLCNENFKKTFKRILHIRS
row,IC50 [µM],Structure (SMILES)
1,0.0152,"CC(=O)NCc1cc2c(s1)CCc1ccccc1C2=C1CCN(C)CC1 [Compound 20, 2-Acetylaminomethyl-4-(1-methylpiperidin-4-ylidene)-9,10-dihydro-4H-1-thiabenzo[f]azulene hydrochloride]"
2,0.0035,"CCOC(=O)Cc1cc2c(s1)C(=C1CCN(C)CC1)c1ccccc1CC2 [Compound 23, Ethyl[4-(1-methylpiperidin-4-ylidene)-9,10-dihydro-4H-3-thiabenzo[f]azulen-2-yl]acetate hydrochloride]"
3,0.0164,"CN1CCC(=C2c3ccccc3CCc3sc(C(N)=O)cc32)CC1 [Compound 31, [4-(1-Methylpiperidin-4-ylidene)-9,10-dihydro-4H-1-thiabenzo[f]azulen-2-yl]carboxamide]"
4,0.0708,"COCCNC(=O)c1cc2c(s1)CCc1ccccc1C2=C1CCN(C)CC1 [Compound 38, N-(2-Methoxyethyl)-[4-(1-methylpiperidin-4-ylidene)-9,10-dihydro-4H-1-thiabenzo[f]azulen-2-yl]carboxamide hydrochloride]"
5,0.0521,"CONC(=O)c1cc2c(s1)CCc1ccccc1C2=C1CCN(C)CC1 [Compound 40, N-Methoxy [4-(1-methylpiperidin-4-ylidene)-9,10-dihydro-4H-1-thiabenzo[f]azulen-2-yl]carboxamide hydrochloride]"
6,0.0192,"CCOC(=O)c1cc2c(s1)C(=C1CCN(C)CC1)c1ccccc1OC2 [Compound 44, Ethyl[4-(1-methylpiperidin-4-ylidene)-4,10-dihydro-9-oxa-3-thiabenzo[f]azulen-2-yl]carboxylate hydrochloride]"
7,0.0293,"CCOC(=O)C=Cc1cc2c(s1)C(=O)Cc1ccccc1C2=C1CCN(C)CC1 [Compound 47, Ethyl 3-[4-(1-methylpiperidin-4-ylidene)-10-oxo-9,10-dihydro-4H-1-thiabenzo[f]azulen-2-yl]acrylate]"
8,0.0169,"CCOC(=O)c1cc2c(s1)C(=O)Cc1ccccc1C2=C1CCN(C)CC1 [Compound 50, Ethyl[4-(1-methylpiperidin-4-ylidene)-10-oxo-9,10-dihydro-4H-1-thiabenzo[f]azulen-2-yl]carboxylate]"
9,0.0701,"CC(C(=O)O)c1ccc2c(c1)C(=C1CCN(C)CC1)c1sccc1CO2 (stereo not drawn) [Compound 57, 2-[4-(1-Methylpiperidin-4-ylidene)-4,10-dihydro-9-oxa-3-thiabenzo[f]azulen-6-yl]propionic acid hydrochloride]"
10,0.0591,"CC(C(=O)O)c1cc2c(s1)C(=C1CCN(C)CC1)c1ccccc1CC2 (stereo not drawn) [Compound 60, 2-[4-(1-Methylpiperidin-4-ylidene)-9,10-dihydro-4H-3-thiabenzo[f]azulen-2-yl]propionic acid hydrochloride]"
11,0.042,"CN1CCC(=C2c3ccccc3CCc3sc(CC(=O)NCCO)cc32)CC1 [Compound 63, N-(2-Hydroxyethyl)-{[4-(1-methylpiperidin-4-ylidene)-9,10-dihydro-4H-1-thiabenzo[f]azulen-2-yl]}acetamide]"
12,0.0486,"CC(C(=O)NCCO)c1ccc2c(c1)C(=C1CCN(C)CC1)c1sccc1CO2 (stereo not drawn) [Compound 64, N-(2-Hydroxyethyl)-{2-[4-(1-methylpiperidin-4-ylidene)-4,10-dihydro-9-oxa-3-thiabenzo[f]azulen-6-yl]}propionamide]"
13,0.0933,"CC(O)CNC(=O)c1cc2c(s1)CCc1ccccc1C2=C1CCN(C)CC1 (stereo not drawn) [Compound 70, N-(2-Hydroxypropyl)-{[4-(1-methylpiperidin-4-ylidene)-9,10-dihydro-4H-1-thiabenzo[f]azulen-2-yl]}carboxamide]"
14,0.062,"CC(CO)NC(=O)c1cc2c(s1)CCc1ccccc1C2=C1CCN(C)CC1 (stereo not drawn) [Compound 71, N-(1-Hydroxyprop-2-yl)-{[4-(1-methylpiperidin-4-ylidene)-9,10-dihydro-4H-1-thiabenzo[f]azulen-2-yl]}carboxamide]"
15,0.0709,"CN1CCC(=C2c3ccccc3CCc3sc(C(=O)N(C)O)cc32)CC1 [Compound 74, N-Hydroxy-N-methyl-{[4-(1-methylpiperidin-4-ylidene)-9,10-dihydro-4H-1-thiabenzo[f]azulen-2-yl]}carboxamide]"
16,0.0748,"CCOC(=O)Nc1cc2c(s1)CCc1ccccc1C2=C1CCN(C)CC1 [Compound 75, 2-Ethoxycarbonylamino-4-(1-methylpiperidin-4-ylidene)-9,10-dihydro-4H-1-thiabenzo[f]azulene]"

row,IC50 [µM],Structure (SMILES)
1,0.0378,"CN1CCC(=C2c3ccccc3CCc3sc(C(=O)NCCF)cc32)CC1 [Compound 77, N-(2-Fluoroethyl)-{[4-(1-methylpiperidin-4-ylidene)-9,10-dihydro-4H-1-thiabenzo[f]azulen-2-yl]}carboxamide]"
2,0.0651,"CN1CCC(=C2c3ccccc3CCc3sc(C(=O)NO)cc32)CC1 [Compound 78, N-Hydroxy-{[4-(1-methylpiperidin-4-ylidene)-9,10-dihydro-4H-1-thiabenzo[f]azulen-2-yl]}carboxamide]"
3,0.0282,"CN1CCC(=C2c3ccccc3CCc3sc(C(=O)NCC(F)(F)F)cc32)CC1 [Compound 79, N-(2,2,2-Trifluoroethyl)-{[4-(1-methylpiperidin-4-ylidene)-9,10-dihydro-4H-1-thiabenzo[f]azulen-2-yl]}carboxamide]"
4,0.0699,"CN1CCC(=C2c3ccccc3CCc3sc(C(=O)NC(C)(C)CO)cc32)CC1 [Compound 80, N-(2-Methyl-1-hydroxyprop-2-yl)-{[4-(1-methylpiperidin-4-ylidene)-9,10-dihydro-4H-1-thiabenzo[f]azulen-2-yl]}carboxamide]"
5,0.0384,"CON(C)C(=O)c1cc2c(s1)CCc1ccccc1C2=C1CCN(C)CC1 [Compound 84, N-Methyl-N-methoxy-{[4-(1-methylpiperidin-4-ylidene)-9,10-dihydro-4H-1-thiabenzo[f]azulen-2-yl]}carboxamide]"
6,0.0275,"CCCNC(=O)c1cc2c(s1)CCc1ccccc1C2=C1CCN(C)CC1 [Compound 85, N-Propyl-{[4-(1-methylpiperidin-4-ylidene)-9,10-dihydro-4H-1-thiabenzo[f]azulen-2-yl]}carboxamide]"
7,0.0212,"C=CCNC(=O)c1cc2c(s1)CCc1ccccc1C2=C1CCN(C)CC1 [Compound 86, N-Allyl-{[4-(1-methylpiperidin-4-ylidene)-9,10-dihydro-4H-1-thiabenzo[f]azulen-2-yl]}carboxamide]"
8,0.069,"N#CCCN1CCC(=C2c3ccccc3CCc3sc(C(=O)O)cc32)CC1 [Compound 94, {4-[1-(2-Cyanoethyl)piperidin-4-ylidene]-9,10-dihydro-4H-1-thiabenzo[f]azulen-2-yl}carboxylic acid]"
9,0.0149,"CCOC(=O)c1ccc2c(c1)C(=C1CCN(C)CC1)c1ccsc1CC2 [Compound 95, Ethyl[4-(1-methylpiperidin-4-ylidene)-9,10-dihydro-4H-1-thiabenzo[f]azulen-6-yl]carboxylate]"
10,0.0169,"CCOC(=O)CCc1cc2c(s1)CCc1ccccc1C2=C1CCN(C)CC1 [Compound 97, Ethyl 3-[4-(1-methylpiperidin-4-ylidene)-9,10-dihydro-4H-1-thiabenzo[f]azulen-2-yl]propionate]"
11,0.0354,"CCOC(=O)c1cc2c(s1)CCc1ccccc1C2=C1CCN(CC)CC1 [Compound 103, Ethyl[4-(1-ethylpiperidin-4-ylidene)-9,10-dihydro-4H-1-thiabenzo[f]azulen-2-yl]carboxylate hydrochloride]"
12,0.0048,"CN1CCC(=C2c3cc(CO)ccc3CCc3sccc32)CC1 [Compound 104, 6-(2-Hydroxymethyl)-4-(1-methylpiperidin-4-ylidene)-9,10-dihydro-4H-1-thiabenzo[f]azulene]"
13,0.0502,"CCOC(=O)c1cc2c(s1)CCc1ccccc1C2=C1CCN(CCO)CC1 [Compound 105, Ethyl {4-[1-(2-hydroxyethyl)piperidin-4-ylidene]-9,10-dihydro-4H-1-thiabenzo[f]azulen-2-yl}carboxylate]"
14,0.00704,"CCOC(=O)Cc1ccc2c(c1)C(=C1CCN(C)CC1)c1ccsc1CC2 [Compound 106, Ethyl[4-(1-methylpiperidin-4-ylidene)-9,10-dihydro-4H-1-thiabenzo[f]azulen-6-yl]acetate hydrochloride]"
15,0.0234,"CCOC(=O)COCCN1CCC(=C2c3ccccc3CCc3sc(C(=O)OCC)cc32)CC1 [Compound 110, Ethyl {4-[1-(2-ethoxycarbonylmethoxyethyl)piperidin-4-ylidene]-9,10-dihydro-4H-1-thiabenzo[f]azulen-2-yl}carboxylate hydrochloride]"
16,0.00194,"C=Cc1cc2c(s1)CCc1ccccc1C2=C1CCN(C)CC1 [Compound 112, 2-Vinyl-4-(1-methylpiperidin-4-ylidene)-9,10-dihydro-4H-1-thiabenzo[f]azulene]"

row,Structure (SMILES),IC50 [µM]
1,"CN1CCC(=C2c3ccccc3CCc3cc(NC(=O)OC(C)(C)C)sc32)CC1 [Compound 10, 2-t-Butoxycarbonylamino-4-(1-methylpiperidin-4-ylidene)-9,10-dihydro-4H-3-thiabenzo[f]azulene]",0.0885
